Patent publication US12195482B1 (Arcus Biosciences, Inc., priority 2022, dated 2025)
pIC50: −log10 of the molar value.

Molecular target: T1, Axl (Homo sapiens, UniProt P30530)
T1 sequence (P30530 26-894): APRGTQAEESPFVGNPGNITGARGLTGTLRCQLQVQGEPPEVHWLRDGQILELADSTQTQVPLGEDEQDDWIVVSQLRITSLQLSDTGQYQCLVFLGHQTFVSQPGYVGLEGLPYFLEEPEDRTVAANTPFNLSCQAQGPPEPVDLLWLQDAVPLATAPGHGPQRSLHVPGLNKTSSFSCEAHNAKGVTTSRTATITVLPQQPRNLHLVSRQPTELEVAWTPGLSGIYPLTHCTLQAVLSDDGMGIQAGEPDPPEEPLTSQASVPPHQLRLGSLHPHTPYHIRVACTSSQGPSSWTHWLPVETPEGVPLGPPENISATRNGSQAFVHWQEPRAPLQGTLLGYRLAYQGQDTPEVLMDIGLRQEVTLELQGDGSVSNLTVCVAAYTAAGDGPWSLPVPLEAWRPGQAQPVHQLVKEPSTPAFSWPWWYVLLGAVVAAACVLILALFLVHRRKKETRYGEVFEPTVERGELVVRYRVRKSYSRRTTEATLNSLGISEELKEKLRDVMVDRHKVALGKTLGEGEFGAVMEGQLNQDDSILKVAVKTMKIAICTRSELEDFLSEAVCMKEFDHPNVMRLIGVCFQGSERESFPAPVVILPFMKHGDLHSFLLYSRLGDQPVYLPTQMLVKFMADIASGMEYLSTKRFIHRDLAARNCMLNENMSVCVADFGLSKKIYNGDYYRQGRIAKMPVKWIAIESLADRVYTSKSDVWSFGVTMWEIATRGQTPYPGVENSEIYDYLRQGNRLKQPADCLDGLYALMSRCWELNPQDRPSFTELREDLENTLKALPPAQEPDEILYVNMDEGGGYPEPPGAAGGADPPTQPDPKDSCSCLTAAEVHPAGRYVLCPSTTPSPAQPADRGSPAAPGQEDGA
Experiment: Axl NanoBRET intracellular kinase assay (intracellular binding, K-5 tracer displacement)
Parameters: host or cells: HEK-293
Settings: HEK-293 cells transfected with Axl-NanoLuc, 0.35 μM K-5 NanoBRET tracer; read-out: Cell Binding AXL
Protocol: Measuring Intracellular Binding of Axl Inhibitors
Axl NanoBRET™ intracellular kinase assay (Promega, N2540) was performed according to manufacturer's recommendation. In brief, HEK-293 cells are transiently transfected with Ax1-NanoLuc fusion vector (Promega, NV1071), utilizing Fugene HD transfection reagent (Promega, E2311) a day before experiment following manufacturer's recommendation.
The day of the assay, the cells were collected and resuspended in Opti-MEM media (ThermoFisher, 31985070) at 2e5 cells/mL concentration. Testing compounds were serial diluted and dispensed into a white 384 well polystyrene plate at 200 nL in 100% DMSO. 40 μL of resuspended cells is then added per well for a final condition of 8K cells/well with 0.5% DMSO. After one-hour compound pre-incubation at 37° C. and 5% CO2, cells were further incubated with 0.35 μM K-5 NanoBRET tracer for two-hours at 37° C. and 5% CO2. […] of 3× substrate plus Inhibitor solution was prepared according to kits manual and added to the cells followed by a 30 second pulse centrifugation spin. The plate was then immediately read utilizing an Envision (Perkin Elmer) plate reader. The BRET signal is measured by taking the ratio of the emissions reading at 610 nm and 450 nm. Compound binding is based on the decrease BRET signal caused by the displacement of the K-5 tracer. […] ICso value of compounds was determined by 4-parameter non-linear regression fitting of percent activity in GraphPad Prism software.

SMILES | pIC50
C[C@@H]1CCCN1[C@@]1(C)CCc2ccc(-c3cnc4[nH]nc(-c5ccc(-c6ncnn6C)cc5)c4c3)cc2CC1 [Example 112, 1-Methyl-5-(4-{5-[(7S)-7-methyl-7-[(2R)-2-methylpyrrolidin-1-yl]-6,7,8,9-tetrahydro-5H-benzo[7]annulen-2-yl]-1H-pyrazolo[3,4-b]pyridin-3-yl}phenyl)-1H-1,2,4-triazole] | > 7.00
CN(C)C(=O)c1cccnc1-c1ccc(-c2n[nH]c3ncc(-c4ccc5c(c4)CC[C@@H](N4C6COCC4C6)CC5)cc23)cc1 [Example 167, N,N-Dimethyl-2-(4-{5-[(7S)-7-{3-oxa-6-azabicyclo[3.1.1]heptan-6-yl}-6,7,8,9-tetrahydro-5H-benzo[7]annulen-2-yl]-1H-pyrazolo[3,4-b]pyridin-3-yl}phenyl)pyridine-3-carboxamide] | > 7.00
COc1cccnc1-c1ccc(-c2n[nH]c3ncc(-c4ccc5c(c4)CC[C@@H](N4C6COCC4C6)CC5)cc23)cc1 [Example 166, 6-[(7S)-2-{3-[4-(3-Methoxypyridin-2-yl)phenyl]-1H-pyrazolo[3,4-b]pyridin-5-yl}-6,7,8,9-tetrahydro-5H-benzo[7]annulen-7-yl]-3-oxa-6-azabicyclo[3.1.1]heptane] | > 7.00
COc1cccnc1-c1ccc(-c2c[nH]c3ncc(-c4ccc5c(c4)CC[C@@H](N4C6COCC4C6)CC5)cc23)cc1 [Example 164, 6-[(7S)-2-{3-[4-(3-Methoxypyridin-2-yl)phenyl]-1H-pyrrolo[2,3-b]pyridin-5-yl}-6,7,8,9-tetrahydro-5H-benzo[7]annulen-7-yl]-3-oxa-6-azabicyclo[3.1.1]heptane] | > 7.00
CC(C)(O)c1cccnc1-c1ccc(-c2c[nH]c3ncc(-c4ccc5c(c4)CC[C@@H](N4C6COCC4C6)CC5)cc23)cc1 [Example 95, 2-[2-(4-{5-[(7S)-7-{3-Oxa-6-azabicyclo[3.1.1]heptan-6-yl}-6,7,8,9-tetrahydro-5H-benzo[7]annulen-2-yl]-1H-pyrrolo[2,3-b]pyridin-3-yl}phenyl)pyridin-3-yl]propan-2-ol] | > 7.00
c1ccc(-n2cc(-c3n[nH]c4ncc(-c5ccc6c(c5)CC[C@@H](N5C7COCC5C7)CC6)cc34)cn2)nc1 [Example 168, 6-[(7S)-2-{3-[1-(Pyridin-2-yl)-1H-pyrazol-4-yl]-1H-pyrazolo[3,4-b]pyridin-5-yl}-6,7,8,9-tetrahydro-5H-benzo[7]annulen-7-yl]-3-oxa-6-azabicyclo[3.1.1]heptane] | > 7.00
Cc1cccnc1-c1ccc(-c2n[nH]c3ncc(-c4ccc5c(c4)CC[C@@](C)(N4CCC[C@H]4C)CC5)cc23)cc1 [Example 163, 3-Methyl-2-(4-{5-[(7S)-7-methyl-7-[(2R)-2-methylpyrrolidin-1-yl]-6,7,8,9-tetrahydro-5H-benzo[7]annulen-2-yl]-2H-pyrazolo[3,4-b]pyridin-3-yl}phenyl)pyridine] | > 7.00
O=C(c1cccnc1-c1ccc(-c2c[nH]c3ncc(-c4ccc5c(c4)CC[C@@H](N4C6COCC4C6)CC5)cc23)cc1)N1CCCC1 [Example 171, 6-[(7S)-2-(3-{4-[3-(Pyrrolidine-1-carbonyl)pyridin-2-yl]phenyl}-1H-pyrrolo[2,3-b]pyridin-5-yl)-6,7,8,9-tetrahydro-5H-benzo[7]annulen-7-yl]-3-oxa-6-azabicyclo[3.1.1]heptane] | > 7.00
Cc1cccnc1-c1ccc(-c2c[nH]c3ncc(-c4ccc5c(c4)CC[C@@](C)(N4CCC[C@H]4C)CC5)cc23)cc1 [Example 172, 3-Methyl-2-(4-{5-[(7S)-7-methyl-7-[(2R)-2-methylpyrrolidin-1-yl]-6,7,8,9-tetrahydro-5H-benzo[7]annulen-2-yl]-1H-pyrrolo[2,3-b]pyridin-3-yl}phenyl)pyridine] | > 7.00
c1cncc(-c2ccc(-c3c[nH]c4ncc(-c5ccc6c(c5)CC[C@@H](N5C7COCC5C7)CC6)cc34)cc2)c1 [Example 158, 6-[(7S)-2-{3-[4-(Pyridin-3-yl)phenyl]-1H-pyrrolo[2,3-b]pyridin-5-yl}-6,7,8,9-tetrahydro-5H-benzo[7]annulen-7-yl]-3-oxa-6-azabicyclo[3.1.1]heptane] | 6.00 to 7.00
